# Laboratory results from PMC6753678, “Fueling Open Innovation for Malaria Transmission-Blocking Drugs: Hundreds of Molecules Targeting Early Parasite Mosquito Stages” (Frontiers in Microbiology, 2019).
# pIC50: −log10 of the molar value. Where two headings read alike, the source gives them in different places.
# What was measured:
# [1] = test system: 3D7-strain P. falciparum asexual parasites; assay: P. falciparum asexual growth inhibition assay (Pf GIA); assay type: cell-based, Plasmodium falciparum; settings: dose response confirmation; read-out: Pf asexual growth inhibition assays IC50
# Method in brief: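 Steps: seed parasites (0.25% parasitemia, 2% hematocrit) onto compound dilutions; incubate 72 h at 37°C, 5% O2/5% CO2; freeze at −70°C and thaw; add LDH reaction mix, read A650 after 10 min. Percent growth inhibition derived from chloroquine and DMSO controls, averaged over three biological replicates.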
# HepG2 cells = assay: HepG2 cytotoxicity assay; settings: for Pb ODA (this manuscript) HepG2 cytoxicity: HepG2 cytotoxicity listed with the Pb ODA data set (this manuscript); for pIC50: read-out: HepG2 cytotoxicity assay IC50, dose response confirmation
# Method in brief: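 Cells are plated at 2,500 per well on compound-treated plates in MEM containing 10% fetal bovine serum and 1% NEAA, then incubated 48 h at 37°C.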
# [2] = test system: P. berghei ookinete development; settings: for % inhibition, Replicate A / % inhibition, Replicate B: primary screen at 1 μM
# [3] = read-out: Pb ODA (this manuscript) IC50, P. berghei ookinete development assay, this manuscript
# [4] = read-out: Pb Ookinete development assay IC50, dose response confirmation
# [5] = unified HepG2 value across the three screens
# [6] = read-out: Pb ODA IC50, this manuscript
# [7] = HepG2 values of the three screens unified
Compound,pIC50 [1],Pb ODA (this manuscript) HepG2 cytoxicity (HepG2 cells) [µM],pIC50 (HepG2 cells),Is compound selective in assay? Pb ODA active? [2],"% inhibition, Replicate A [2] [%]","% inhibition, Replicate B [2] [%]","pIC50 [2, 3]","pIC50 [2, 4]",Unified cytotox (HepG2 cells; [5]) [µM],"Is compound selective in assay? Pb ODA active? ([2]; 1: YES, 0: NO)","pIC50 [2, 6]","HepG2 cytoxicity (Pb ODA, this manuscript) (HepG2 cells) [µM]",Unified cytotox (HepG2 cells; [7]) [µM],Unified cytotox (HepG2 cells) [µM]
COc1ccc(Cn2ncc3c4c(N)nc(N)nc4ccc32)cc1OC [TCMDC-131934],7.24,0.00214,8.67,0 (key: 1: YES; 0: NO),44.86,51.03,5.82,5.81,–,–,–,–,–,–
COc1ccc(-c2nc3c(N)nc(N)nc3nc2-c2ccccc2Cl)cc1.COc1ccc(-c2nc3nc(N)nc(N)c3nc2-c2ccccc2Cl)cc1.Cl [TCMDC-138100],5.81,–,4.14,–,50.02,33.60,–,5.08,73.28,0 (0: NO),5.08,–,–,–
CCOC(=O)[C@H](Cc1cc([N+](=O)[O-])c(Oc2ccc(OC)c(Cc3ccc(OC)c(C(C)C)c3)c2)c([N+](=O)[O-])c1)NC(=O)C(F)(F)F [TCMDC-139398],5.02,–,4.00,–,63.87,33.42,–,5.31,100.00,1 (1: YES),5.31,–,–,–
CCOc1cccc(C(=O)Nc2nonc2-c2ccc(OC)c(OC)c2)c1 [TCMDC-125179],> 9.70,–,5.17,–,52.92,35.19,–,5.12,6.76,0 (0: NO),5.12,–,–,–
CCc1cc2c3c(N)nc(N)nc3ccc2n1C(C)(C)C [TCMDC-137306],8.49,–,8.77,–,81.63,92.90,–,5.97,–,0 (0: NO),5.97,0.0017,0.0017,–
Cc1[nH]c(C)c(-c2ccc(-c3ccc(Cl)cc3)nc2)c(=O)c1Br [TCMDC-136159],6.20,–,4.00,–,98.54,60.48,–,6.03,–,1 (1: YES),–,–,100.00,–
Cc1[nH]c2ccccc2c(=O)c1Br [TCMDC-137427],5.47,100.00,4.00,1 (key: 1: YES; 0: NO),55.99,67.98,–,5.80,–,–,–,–,–,–
Cc1[nH]c(C)c(-c2ccc(-c3ccc(OC(F)(F)F)cc3)cc2)c(=O)c1Br [TCMDC-134726],7.72,7.76,5.11,1 (key: 1: YES; 0: NO),101.74,103.66,7.59,7.59,–,–,–,–,–,–
CCC1=C[C@@H]2CN(C1)Cc1c([nH]c3ccccc13)[C@@](C(=O)OC)(c1cc3c(cc1OC)N(C)[C@H]1[C@@](O)(C(=O)OC)[C@H](O)[C@]4(CC)C=CCN5CC[C@]31[C@@H]54)C2.O=S(=O)(O)O [TCMDC-137769],6.67,–,4.38,–,141.80,104.79,–,6.44,41.21,1 (1: YES),6.44,–,–,–
CCN1CCN(CCCNc2c3ccccc3nc3ccccc23)CC1.Cl [TCMDC-137546],6.21,–,5.04,–,55.87,53.70,–,5.52,–,0 (0: NO),5.52,9.12,9.12,–
CCC(C(C)C)n1ccc2c3c(N)nc(N)nc3ccc21 (centres unmarked) [TCMDC-137872],> 9.70,–,8.77,–,63.79,69.72,–,6.32,–,0 (0: NO),6.33,0.0017,0.0017,–
COc1cc(NC(=O)Nc2ccc(Br)cc2C(=O)Nc2ccc(Br)cc2)cc(OC)c1OC [TCMDC-139733],5.68,–,4.00,–,44.63,66.05,–,5.20,100.00,1 (1: YES),5.20,–,–,–
Cc1nc(C)c(-c2ccc(Oc3ccc(Cl)c(Cl)c3)cc2)c(O)c1Br [TCMDC-137397],7.06,–,4.71,–,88.28,102.35,–,7.05,–,1 (1: YES),–,19.50,19.50,–
CC(=O)Oc1c(Br)c(C)nc(C)c1-c1ccc(Oc2ccc(OC(F)(F)F)cc2)cc1 [TCMDC-137383],6.82,9.89,5.00,1 (key: 1: YES; 0: NO),98.12,79.70,6.23,6.23,–,–,–,–,–,–
CCCCCCCc1c(C)[nH]c2ccc(F)cc2c1=O [TCMDC-137269],6.68,100.00,4.00,1 (key: 1: YES; 0: NO),57.79,78.85,6.49,6.50,–,–,–,–,–,–
CCC(CC)n1cc2c(ccc3nc(N)nc(N)c32)n1 [TCMDC-138019],7.22,0.0017,8.77,0 (key: 1: YES; 0: NO),5.46,62.28,5.09,5.09,–,–,–,–,–,–
Cc1[nH]c(C)c(-c2ccc(OCc3ccc(F)cc3)cc2)c(=O)c1Br [TCMDC-138928],6.97,100.00,4.00,1 (key: 1: YES; 0: NO),93.24,106.54,6.22,6.23,–,–,–,–,–,–
Cl.Oc1cc(-c2nc(-c3ccccc3)[nH]c2-c2ccncc2)ccc1Cl [TCMDC-139660],5.75,–,5.01,0 (key: 1: YES; 0: NO),79.35,69.44,–,5.76,–,–,5.75,–,–,9.77
CC(C)N1CCN(CCCCNc2c3ccccc3nc3ccccc23)CC1.Cl [TCMDC-137573],8.00,–,5.24,–,42.86,78.36,–,5.54,–,0 (0: NO),5.54,5.75,5.75,–
O=C(Nc1ccccc1)Nc1ccc(-n2ccc(C(F)(F)F)n2)cc1 [TCMDC-123480],6.38,–,4.00,–,42.19,52.26,–,5.72,100.00,1 (1: YES),5.72,–,–,–
COc1ccc2nc3cc(Cl)ccc3c(NCCCN3CCNCC3)c2c1.Cl [TCMDC-137580],7.25,14.79,4.83,0 (key: 1: YES; 0: NO),53.44,35.84,5.77,5.78,–,–,–,–,–,–
CC[C@H]1CN2CCc3cc(OC)c(OC)cc3[C@@H]2C[C@@H]1C[C@H]1NCCc2c1cc(OC)c(O)c2Cl [TCMDC-131802],6.81,4.52,5.34,1 (key: 1: YES; 0: NO),61.67,93.54,6.57,6.57,–,–,–,–,–,–
COc1ccc2nc3cc(Cl)ccc3c(NCCO)c2c1.Cl [TCMDC-124272],6.39,15.67,4.80,1 (key: 1: YES; 0: NO),66.85,79.62,6.08,6.07,–,–,–,–,–,–
CC1=CC(=O)[C@@H](O)[C@]2(C)[C@H]3[C@@]4(O)OC[C@@]35[C@@H](C[C@@H]12)OC(=O)C[C@H]5[C@@H](C)[C@H]4O [TCMDC-142261],6.96,–,4.58,–,102.04,101.98,–,7.26,26.30,1 (1: YES),7.26,–,–,–
